The term pest or weed control denotes the degree to which the test organism was suppressed or injured, in per cent. A high value points to strong suppression.

Type in all cases: in vivo
In one assay the test system is Setaria viridis. Put plainly: Greenhouse pre-emergence (PRE) herbicidal test on SETVI. The source says: (§1) The culture containers used were plastic pots containing loamy sand with approximately 3.0% of humus as substrate. The seeds of the test plants were sown separately for each species.
For the pre-emergence treatment, the active compounds, suspended or emulsified in water, were applied directly after sowing by means of finely distributing nozzles. The containers were irrigated gently to promote germination and growth and subsequently covered with transparent plastic hoods until the plants had rooted. This cover caused uniform germination of the test plants unless this was adversely affected by the active compounds.
(§2) Depending on the species, the plants were kept at 10-25° C. and 20-35° C., respectively.
(§3) The test period extended over 2 to 4 weeks. During this time, the plants were tended and their response to the individual treatments was evaluated.
(§4) Evaluation was carried out using a scale from 0 to 100. 100 means no emergence of the plants, or complete destruction of at least the above-ground parts, and 0 means no damage or normal course of growth. A good herbicidal activity is given at values of at least 70, and very good herbicidal activity is given at values of at least 85.
(§5) If not stated differently, the respective components A and B, and if appropriate, C were formulated as a 5% by weight strength emulsion concentrate and, with addition of the amount of solvent system, introduced into the spray liquor used for applying the active compound.
(§6) As indicated application was either post emergent (POST) at the respective growth stage (GS) of the weed (BBCH code), or pre-emergent (PRE). […]

The subject of another assay is Commelina benghalensis. Briefly: Greenhouse pre-emergence (PRE) herbicidal test on COMBE. To be noted: Commelina benghalensis, pre-emergence, 480 h, read-out: solo application % activity. In short, it runs like this: (§7)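 Seeds were sown per species in loamy sand with ~3.0% humus, treated pre-emergence and kept at 10-25° C or 20-35° C depending on species. Damage was scored at 20 days after treatment on a 0-100 scale (100 = no emergence or complete destruction of above-ground parts, 0 = no damage).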

The subject of assay [1] is Euphorbia heterophylla. Put plainly: Greenhouse pre-emergence (PRE) herbicidal test on EPHHL. To be noted: Euphorbia heterophylla, pre-emergence, 480 h. In short, it runs like this:
as §7

In assay [2] the test system is Abutilon theophrasti. Briefly: Greenhouse pre-emergence (PRE) herbicidal test on ABUTH. To be noted: Abutilon theophrasti, pre-emergence, 480 h. In short, it runs like this:
as §7

The subject of assay [3] is Euphorbia heterophylla. Put plainly: Greenhouse post-emergence (POST) herbicidal test on EPHHL. To be noted: Euphorbia heterophylla, post-emergence, 480 h, read-out: solo application % activity. On the procedure: as §1
(§8) For the post-emergence treatment, the test plants were grown to a plant height of from 3 to 15 cm, depending on the plant habit, and only then treated with the active compounds which had been suspended or emulsified in water. To this end, the test plants were either sown directly, and grown in the same containers, or they were first grown separately as seedlings and transplanted into the test containers a few days prior to treatment.
as §2, §3, §4, §5, §6

Another assay has as its system Alopecurus myosuroides. Briefly: Greenhouse pre-emergence (PRE) herbicidal test on ALOMY. To be noted: Alopecurus myosuroides, pre-emergence, 480 h. In short, it runs like this:
as §7

Assay [4] concerns Echinochloa crus-galli. Put plainly: Greenhouse post-emergence (POST) herbicidal test on ECHCG. To be noted: Echinochloa crus-galli, post-emergence, 480 h, read-out: solo application % activity. The essentials:
(§9)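 Plants grown in pots of loamy sand (~3.0% humus) to 3–15 cm height, then sprayed with compounds suspended or emulsified in water (formulated as 5% by weight emulsion concentrate). Kept at 10-25° C or 20-35° C by species; injury scored 0–100 (100 = complete destruction) at 20 DAT.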

For the next assay, the system named is Ambrosia artemisiifolia. Put plainly: Greenhouse pre-emergence (PRE) herbicidal test on AMBEL.
The subject of assay [5] is Abutilon theophrasti. Briefly: Greenhouse post-emergence (POST) herbicidal test on ABUTH. To be noted: Abutilon theophrasti, post-emergence, 480 h. In short, it runs like this: as §9
The test system of another assay is Digitaria sanguinalis. Put plainly: Greenhouse post-emergence (POST) herbicidal test on DIGSA. To be noted: Digitaria sanguinalis, post-emergence, 480 h, read-out: solo application % activity. In short, it runs like this: as §9
The subject of a further assay is Ipomoea hederacea. Briefly: Greenhouse post-emergence (POST) herbicidal test on IPOHE. On the procedure:
as §1, §8, §2, §3, §4, §5
As indicated application was either post emergent (POST) at the respective growth stage (GS) of the weed (BBCH code), or pre-emergent (PRE).
Assessment was 20 days after treatment (DAT).

For the next assay, the system named is Lolium multiflorum. Briefly: Greenhouse pre-emergence (PRE) herbicidal test on LOLMU. In short, it runs like this:
as §7

Assay [6] has as its system Echinochloa crus-galli. Put plainly: Greenhouse pre-emergence (PRE) herbicidal test on ECHCG. As to conditions: PRE, ECHCG, use rate 6.25 gai/ha, 20 DAT. On the procedure:
as §1
The containers were irrigated gently to promote germination and growth and subsequently covered with transparent plastic hoods until the plants had rooted.
as §2, §3, §4, §6

A further assay concerns Amaranthus retroflexus. Briefly: Greenhouse post-emergence (POST) herbicidal test on AMARE. As to conditions: Amaranthus retroflexus, post-emergence, 480 h, read-out: solo application % activity. On the procedure: as §1, §8, §2, §3, §4, §5, §6
A further assay deals with Geranium pusillum. Briefly: Greenhouse post-emergence (POST) herbicidal test on GERPU. To be noted: Geranium pusillum, post-emergence, 480 h, read-out: solo application % activity. In short, it runs like this: as §9
[7] abbreviates: read-out: solo application % activity.
The mark [8] stands for this setting: Ambrosia artemisiifolia, pre-emergence, 480 h, read-out: solo application % activity.

Where two headings read alike, the source gives them in different places.

For `CC(C)N1C(=O)c2ccccc2NS1(=O)=O` [Bentazone], the inhibition at 240 g/ha with Setaria viridis (Setaria viridis, pre-emergence, 480 h, PRE, SETVI, use rate 240 gai/ha, 20 DAT, read-out: solo application % activity) was 10%; in the assay on Commelina benghalensis (PRE, COMBE, use rate 240 gai/ha, 20 DAT), 0%; with Euphorbia heterophylla [1] (PRE, EPHHL, use rate 240 gai/ha, 20 DAT, read-out: solo application % activity) it was 5%; in the assay with Abutilon theophrasti [2] (PRE, ABUTH, use rate 240 gai/ha, 20 DAT, read-out: solo application % activity), 30%; in the assay with Euphorbia heterophylla [3] (POST, EPHHL, use rate 240 gai/ha, 20 DAT), 0%; in the assay on Alopecurus myosuroides (PRE, ALOMY, use rate 240 gai/ha, 20 DAT, read-out: solo application % activity), 15%. Also, the inhibition at 240 g/ha in the assay on Echinochloa crus-galli [4] (POST, ECHCG, use rate 240 gai/ha, 20 DAT) stood at 10%; with Ambrosia artemisiifolia (Ambrosia artemisiifolia, pre-emergence, 480 h, PRE, AMBEL, use rate 240 gai/ha, 20 DAT, read-out: solo application % activity), 0%; with Digitaria sanguinalis (POST, DIGSA, use rate 240 gai/ha, 20 DAT), 0%; in the assay with Ipomoea hederacea (Ipomoea hederacea, post-emergence, 480 h, POST, IPOHE, use rate 240 gai/ha, 20 DAT, read-out: solo application % activity), 0%. For the same compound, the inhibition at 480 g/ha came to 0% in the assay on Setaria viridis (Setaria viridis, pre-emergence, 480 h, PRE, SETVI, use rate 480 gai/ha, 20 DAT, read-out: solo application % activity); 5% with Euphorbia heterophylla [1] (PRE, EPHHL, use rate 480 gai/ha, 20 DAT, read-out: solo application % activity); 0% in the assay on Euphorbia heterophylla [3] (POST, EPHHL, use rate 480 gai/ha, 20 DAT); 30% in the assay with Echinochloa crus-galli [4] (POST, ECHCG, use rate 480 gai/ha, 20 DAT); 0% with Ambrosia artemisiifolia (Ambrosia artemisiifolia, pre-emergence, 480 h, PRE, AMBEL, use rate 480 gai/ha, 20 DAT, read-out: solo application % activity); 10% in the assay with Abutilon theophrasti [5] (POST, ABUTH, use rate 480 gai/ha, 20 DAT, read-out: solo application % activity).
Consider `Cc1c(C(=O)c2cnn(C)c2O)ccc(S(C)(=O)=O)c1C1=NOCC1` [Topramezone, topramezone], for which the “% activity” value in the assay with Setaria viridis (PRE, SETVI, use rate 3.125 gai/ha, 20 DAT) was found to be 0%; in the assay on Lolium multiflorum (PRE, LOLMU, use rate 3.125 gai/ha, 20 DAT), 0%; in the assay with Ambrosia artemisiifolia (PRE, AMBEL, use rate 6.25 gai/ha, 20 DAT), 0%; with Echinochloa crus-galli [6] it was 10%; in the assay on Ipomoea hederacea (POST, IPOHE, use rate 3.125 gai/ha, 20 DAT) it was 15%; in the assay on Ipomoea hederacea (POST, IPOHE, use rate 6.25 gai/ha, 20 DAT) it was 35%.
In the case of `CCSC(C)CC1CC(=O)C(/C(CC)=N/OC/C=C/Cl)=C(O)C1` (centres unmarked) [Clethodim, clethodim], the inhibition at 5 g/ha was 0% with Amaranthus retroflexus; 25% in the assay on Setaria viridis (Setaria viridis, pre-emergence, 480 h, read-out: solo application % activity); 0% with Commelina benghalensis; 0% with Euphorbia heterophylla [1] (setting [7]); 0% with Abutilon theophrasti [2] (setting [7]); 60% with Lolium multiflorum (Lolium multiflorum, pre-emergence, 480 h, read-out: solo application % activity). Besides, the inhibition at 5 g/ha in the assay on Euphorbia heterophylla [3] is 0%; with Alopecurus myosuroides (setting [7]) it was 60%; with Echinochloa crus-galli [4], 80%; in the assay on Ambrosia artemisiifolia (setting [8]), 0%; with Geranium pusillum, 0%; in the assay on Ipomoea hederacea (Ipomoea hederacea, post-emergence, 480 h, read-out: solo application % activity), 0%. In addition, the inhibition at 10 g/ha in the assay on Amaranthus retroflexus stood at 0%; in the assay on Commelina benghalensis, 0%; with Euphorbia heterophylla [1] (setting [7]) it was 0%; in the assay on Euphorbia heterophylla [3] it was 0%; in the assay on Alopecurus myosuroides (setting [7]), 75%; with Ambrosia artemisiifolia (setting [8]) it was 0%. In addition, the inhibition at 10 g/ha in the assay on Abutilon theophrasti [5] (setting [7]) is 0%; with Geranium pusillum, 0%; in the assay with Digitaria sanguinalis, 80%.
As for `CCCC(=NOCC)C1=C(O)CC(C2CCCSC2)CC1=O` (centres unmarked) [Cycloxydim, cycloxydim], the inhibition at 5 g/ha in the assay on Amaranthus retroflexus (POST, AMARE, use rate 5 gai/ha, 20 DAT) worked out at 0%; in the assay with Euphorbia heterophylla [1] (PRE, EPHHL, use rate 5 gai/ha, 20 DAT, read-out: solo application % activity) it was 5%; with Abutilon theophrasti [2] (PRE, ABUTH, use rate 5 gai/ha, 20 DAT, read-out: solo application % activity) it was 0%; in the assay with Alopecurus myosuroides (PRE, ALOMY, use rate 5 gai/ha, 20 DAT, read-out: solo application % activity), 15%; in the assay with Ambrosia artemisiifolia (Ambrosia artemisiifolia, pre-emergence, 480 h, PRE, AMBEL, use rate 5 gai/ha, 20 DAT, read-out: solo application % activity), 0%; with Abutilon theophrasti [5] (POST, ABUTH, use rate 5 gai/ha, 20 DAT, read-out: solo application % activity), 0%. Besides, the inhibition at 5 g/ha with Geranium pusillum (POST, GERPU, use rate 5 gai/ha, 20 DAT) was 5%; in the assay with Ipomoea hederacea (Ipomoea hederacea, post-emergence, 480 h, POST, IPOHE, use rate 5 gai/ha, 20 DAT, read-out: solo application % activity), 0%. For the same compound, the pest or weed control at 5 g/ha stood at 5% with Euphorbia heterophylla [1] (PRE, 5 gai/ha, 20 DAT); 0% with Abutilon theophrasti [2] (PRE, 5 gai/ha, 20 DAT); 0% in the assay with Abutilon theophrasti [5] (POST, 5 gai/ha, 20 DAT); 0% in the assay on Ipomoea hederacea (Ipomoea hederacea, post-emergence, 480 h, POST, 5 gai/ha, 20 DAT). In addition, the inhibition at 20 g/ha in the assay on Euphorbia heterophylla [1] (PRE, EPHHL, use rate 20 gai/ha, 20 DAT, read-out: solo application % activity) was 10%; in the assay on Euphorbia heterophylla [3] (POST, EPHHL, use rate 20 gai/ha, 20 DAT), 0%; in the assay with Alopecurus myosuroides (PRE, ALOMY, use rate 20 gai/ha, 20 DAT, read-out: solo application % activity) it was 60%; with Ambrosia artemisiifolia (Ambrosia artemisiifolia, pre-emergence, 480 h, PRE, AMBEL, use rate 20 gai/ha, 20 DAT, read-out: solo application % activity), 0%; with Abutilon theophrasti [5] (POST, ABUTH, use rate 20 gai/ha, 20 DAT, read-out: solo application % activity), 0%; in the assay on Ipomoea hederacea (Ipomoea hederacea, post-emergence, 480 h, POST, IPOHE, use rate 20 gai/ha, 20 DAT, read-out: solo application % activity), 0%. In addition, in the assay on Alopecurus myosuroides (PRE, 20 gai/ha, 20 DAT), the pest or weed control at 20 g/ha was 60%.

The values above are taken from US20260007133A1, “HERBICIDAL COMPOSITION COMPRISING AZINE COMPOUNDS” (BASF SE, priority 2022, published 2026).
